# Data as given in US6750228B1, “Aromatic sulfone hydroxamic acid metalloprotease inhibitor” (priority 1997, dated 2004).
# Structures can show the parent of a compound that is named as a salt. Where two headings read alike, the source gives them in different places.
# Legend:
# Assay in all cases: biochemical
# MMP-13 = molecular target: T1, MMP-13 (Homo sapiens, UniProt P45452); conditions: read-out: MMP-13 IC50
# T1 construct: made in house; host or cells: baculovirus / insect cells
# How it was run: (§1)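 Assay buffer 100 mM Tris-HCl, 100 mM NaCl, 10 mM CaCl2, pH 7.5. Activated MMP + inhibitor, 5 min RT; then methoxycoumarin peptide substrate, 4 μM final. Readout fluorescence; IC50 calculated.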
# MMP-1 = molecular target: T2, MMP-1 (Homo sapiens, UniProt P03956); conditions: read-out: MMP-1 IC50
# T2 construct: made in house; host or cells: transfected HT-1080 cells (provided by Dr. Harold Welgus, Washington University)
# T2 sequence (P03956 100-469): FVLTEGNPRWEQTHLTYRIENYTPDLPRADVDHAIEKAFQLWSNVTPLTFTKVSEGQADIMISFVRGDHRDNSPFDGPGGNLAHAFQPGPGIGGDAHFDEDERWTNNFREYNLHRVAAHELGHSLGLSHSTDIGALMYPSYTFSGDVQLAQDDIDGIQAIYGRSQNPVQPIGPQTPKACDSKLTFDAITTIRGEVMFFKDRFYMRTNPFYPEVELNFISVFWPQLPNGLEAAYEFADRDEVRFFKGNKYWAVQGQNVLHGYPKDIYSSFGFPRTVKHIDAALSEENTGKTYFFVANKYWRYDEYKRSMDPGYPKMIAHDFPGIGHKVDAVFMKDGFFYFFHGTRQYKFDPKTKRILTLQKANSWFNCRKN
# How it was run: as §1
# MMP-2 = molecular target: T3, MMP-2 (Homo sapiens, UniProt P08253); conditions: read-out: MMP-2 IC50
# T3 construct: made in house; provided by Dr. Gregory Goldberg, Washington University
# T3 sequence (P08253 110-660): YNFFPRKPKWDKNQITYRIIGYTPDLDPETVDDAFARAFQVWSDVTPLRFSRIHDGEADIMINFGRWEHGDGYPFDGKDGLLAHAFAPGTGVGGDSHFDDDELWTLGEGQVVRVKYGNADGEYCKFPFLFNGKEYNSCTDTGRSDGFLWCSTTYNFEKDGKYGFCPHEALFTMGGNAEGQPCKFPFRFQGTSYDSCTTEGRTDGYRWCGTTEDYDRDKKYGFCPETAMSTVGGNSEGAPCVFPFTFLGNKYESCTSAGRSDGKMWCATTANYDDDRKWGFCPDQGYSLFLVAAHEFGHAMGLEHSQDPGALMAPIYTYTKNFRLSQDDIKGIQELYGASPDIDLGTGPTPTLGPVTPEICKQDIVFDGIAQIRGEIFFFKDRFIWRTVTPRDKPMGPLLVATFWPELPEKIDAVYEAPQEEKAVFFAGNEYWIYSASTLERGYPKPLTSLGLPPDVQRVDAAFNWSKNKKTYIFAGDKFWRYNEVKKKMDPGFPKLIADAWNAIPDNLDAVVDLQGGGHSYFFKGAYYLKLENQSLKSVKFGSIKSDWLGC
# How it was run: as §1
# [1] = recombinant human MMP-13, MCA peptide substrate 4 μM, pH 7.5, room temperature
# [2] = recombinant human MMP-1, MCA peptide substrate 4 μM, pH 7.5, room temperature
# [3] = recombinant human MMP-2, MCA peptide substrate 4 μM, pH 7.5, room temperature
Structure (SMILES),IC50 (MMP-13; [1]) [nM],IC50 (MMP-1; [2]) [nM],IC50 (MMP-2; [3]) [nM],IC50 (MMP-1) [nM],IC50 (MMP-13) [nM],IC50 (MMP-2) [nM]
CC1CC(C)CN(C(=O)C2CCN(c3ccc(S(=O)(=O)C4(C(=O)NO)CCN(C(=O)CNCCN(C)C)CC4)cc3)CC2)C1 (stereo not drawn) [Example 289],50,> 10000,> 10000,,,
N#Cc1ccccc1-c1ccc(COC2CCN(c3ccc(S(=O)(=O)C4(C(=O)NO)CCOCC4)cc3)CC2)cc1 [Example 557],16.9,> 10000,200,,,
CN(Cc1cccnc1)C(=O)C1CCN(c2ccc(S(=O)(=O)C3(C(=O)NO)CCOCC3)cc2)CC1 [Example 497],50,> 10000,8000,,,
O=C(CCCCNCc1ccccn1)N1CCC(C(=O)NO)(S(=O)(=O)c2ccc(Oc3ccc(C(F)(F)F)cc3)cc2)CC1 [Example 336],1,> 10000,< 0.1,,,
CC(C)N1CCC(C(=O)NO)(S(=O)(=O)c2ccc(Oc3ccc(OC(F)(F)F)cc3)cc2)CC1 [Example 453],0.4,> 10000,35,,,
O=C(NO)C1(S(=O)(=O)c2ccc(N3CCC(OCc4ccc(F)cc4C(F)(F)F)CC3)cc2)CCN(C2CC2)CC1 [Example 414],50.5,> 10000,1500,,,
"COCCN1CCC(C(=O)NO)(S(=O)(=O)c2ccc(N3CCC(C(=O)NCCCc4ccccc4)CC3)cc2)CC1 [Example 237, N-Hydroxy-1-(2-methoxyethyl)-4-[[4-[4-[[(3-phenylpropyl)amino]carbonyl]-1-piperidinyl]-phenyl]sulfonyl]-4-piperidinecarboxamide, Monohydrochloride]",13,> 10000,1900,,,
O=C(NO)C1(S(=O)(=O)c2ccc(N3CCN(S(=O)(=O)c4ccccc4C(F)(F)F)CC3)cc2)CCOCC1 [Example 675],13,6000,88,,,
COCCN1CCC(C(=O)NO)(S(=O)(=O)c2ccc(N3CCC(OCc4ccc(F)cc4)CC3)cc2)CC1 [Example 448],2.4,> 10000,540,,,
O=C(NO)C1(S(=O)(=O)c2ccc(N3CCC(n4c(=O)[nH]c5ccccc54)CC3)cc2)CCOCC1 [Example 211],11.4,,1200,> 10000,,
O=C(NO)C1(S(=O)(=O)c2ccc(N3CCC(Cc4ccccc4)CC3)cc2)CCOCC1 [Example 720],4.5,> 10000,36.9,,,
N#Cc1ccc(OC2CCN(c3ccc(S(=O)(=O)C4(C(=O)NO)CCOCC4)cc3)CC2)cc1 [Example 469],0.8,> 10000,12,,,
CCC(C)COCc1ccc(COC2CCN(c3ccc(S(=O)(=O)C4(C(=O)NO)CCOCC4)cc3)CC2)cc1 (stereo not drawn) [Example 601],9,> 10000,1300,,,
Cc1ccc(OC2CCN(c3ccc(S(=O)(=O)C4(C(=O)NO)CCOCC4)cc3)CC2)c([N+](=O)[O-])c1 [Example 551],9,> 10000,140,,,
O=C(C1CCN(c2ccc(S(=O)(=O)C3(C(=O)NO)CCOCC3)cc2)CC1)N1CCN(c2nccc(C(F)(F)F)n2)CC1 [Example 49],,,,> 10000,20,6500
CC1CN(c2ccc(S(=O)(=O)C3(C(=O)NO)CCOCC3)cc2)CCC1OCc1ccc(C(F)(F)F)cc1 (stereo not drawn) [Example 583],70,> 10000,4700,,,
COc1ccccc1COC1CCC(Oc2ccc(S(=O)(=O)C3(C(=O)NO)CCOCC3)cc2)C1 (stereo not drawn) [Example 741],50,> 10000,125,,,
CCN1CCN(c2ccc(S(=O)(=O)C3(C(=O)NO)CCOCC3)cc2)CC1 [Example 622],500,> 10000,1600,,,
O=C(NO)C1(S(=O)(=O)c2ccc(OC3CCC(OCc4ccccc4Cl)C3)cc2)CCOCC1 (stereo not drawn) [Example 665],2.3,> 10000,29.2,,,

Structure (SMILES),IC50 (MMP-13; [1]) [nM],IC50 (MMP-1; [2]) [nM],IC50 (MMP-2; [3]) [nM],IC50 (MMP-1) [nM],IC50 (MMP-13) [nM],IC50 (MMP-2) [nM]
CC1CC(C)CN(C(=O)C2CCN(c3ccc(S(=O)(=O)C4(C(=O)NO)CCN(C(=O)CN5CCCC5)CC4)cc3)CC2)C1 (stereo not drawn) [Example 298],40,> 10000,> 10000,,,
N#Cc1ccc(S(=O)(=O)N2CCN(c3ccc(S(=O)(=O)C4(C(=O)NO)CCOCC4)cc3)CC2)cc1 [Example 690],7.3,> 10000,41.8,,,
COc1cccc(CO[C@@H]2CCN(c3ccc(S(=O)(=O)C4(C(=O)NO)CCN(C5CC5)CC4)cc3)C2)c1 [Example 398],7,> 10000,70,,,
O=C(NO)C1(S(=O)(=O)c2ccc(Oc3ccc(OC(F)(F)F)cc3)cc2)CCS(=O)(=O)CC1 [Example 157],0.5,> 10000,0.2,,,
O=C(NO)C1(S(=O)(=O)c2ccc(N3CCC([S+]([O-])c4ccccc4)CC3)cc2)CCN(C2CC2)CC1 (stereo not drawn) [Example 459],136,> 10000,3100,,,
O=C(NO)C1(S(=O)(=O)c2ccc(N3CC4CC3CN4c3cccc(F)c3)cc2)CCOCC1 (stereo not drawn) [Example 491],> 10000,> 10000,> 10000,,,
O=C(NO)C1(S(=O)(=O)c2ccc(N3CCN(S(=O)(=O)c4ccc(C(F)(F)F)cc4)CC3)cc2)CCOCC1 [Example 677],7,> 10000,34.7,,,
"Cc1ccc(N2CCC(C(=O)NO)(S(=O)(=O)c3ccc(Oc4ccc(OC(F)(F)F)cc4)cc3)CC2)cc1 [Example 229, N-Hydroxy-1-(4-methylphenyl)-4-[[4-[4-(trifluoromethoxy)phenoxy]phenyl]sulfonyl]-4-piperidinecarboxamide Monohydrochloride]",0.18,> 10000,0.1,,,
COc1ccc(S(=O)(=O)N2CCCN(c3ccc(S(=O)(=O)C4(C(=O)NO)CCOCC4)cc3)CC2)cc1 [Example 698],16.9,> 10000,700,,,
COCCN(CCOC)CC(=O)N1CCC(C(=O)NO)(S(=O)(=O)c2ccc(N3CCC(C(=O)N4CC(C)CC(C)C4)CC3)cc2)CC1 (stereo not drawn) [Example 303],115,> 10000,> 10000,,,
CN(CCc1ccccc1)C1CCN(c2ccc(S(=O)(=O)C3(C(=O)NO)CCOCC3)cc2)CC1 [Example 584],2700,> 10000,3500,,,
CCCN(CC1CC1)C(=O)C1CCN(c2ccc(S(=O)(=O)C3(C(=O)NO)CCOCC3)cc2)CC1 [Example 35],30,> 10000,9000,,,
COCCNCC(=O)N1CCC(C(=O)NO)(S(=O)(=O)c2ccc(Oc3ccc(C(F)(F)F)cc3)cc2)CC1 [Example 332],2.1,> 10000,0.4,,,
CCN(CC(=O)N1CCC(C(=O)NO)(S(=O)(=O)c2ccc(Oc3ccc(C(F)(F)F)cc3)cc2)CC1)Cc1ccncc1 [Example 329],0.9,> 10000,0.4,,,
O=C(NO)C1(S(=O)(=O)c2ccc(N3CCC(Oc4ccc5c(c4)CCCC5)CC3)cc2)CCOCC1 [Example 483],32.6,> 10000,10.6,,,
CC(C)CCOc1ccc(COC2CCN(c3ccc(S(=O)(=O)C4(C(=O)NO)CCOCC4)cc3)CC2)cc1 [Example 478],16.4,> 10000,306,,,
CC(=O)c1ccc(OC2CCN(c3ccc(S(=O)(=O)C4(C(=O)NO)CCOCC4)cc3)CC2)c(Cl)c1 [Example 471],2400,> 10000,> 10000,,,
Cc1ccc(S(=O)(=O)N2CCN(c3ccc(S(=O)(=O)C4(C(=O)NO)CCOCC4)cc3)CC2)cc1 [Example 674],8,> 10000,110,,,
O=C(Cc1ccccc1)C1CCN(c2ccc(S(=O)(=O)C3(C(=O)NO)CCOCC3)cc2)CC1 [Example 838],3,> 10000,70,,,
